Here are results for five compounds from patent US20100190856A1, “Novel Polyhydroxylated Compounds as Fatty Acid Synthase (FASN) Inhibitors” (UNIVERSIDAD COMPLUTENSE DE MADRID, priority 2007, published 2010).

For data set [1] the following is noted: rats, oral dose of 56 mg of EGCG; cited from earlier work.
Data set [2] concerns the target T1, rat CPT-1 (Rattus norvegicus, UniProt Q63704).
T1 construct: made in house; host or cells: Pichia pastoris GS115 (isolated intact mitochondria)
T1 sequence (Q63704 1-772): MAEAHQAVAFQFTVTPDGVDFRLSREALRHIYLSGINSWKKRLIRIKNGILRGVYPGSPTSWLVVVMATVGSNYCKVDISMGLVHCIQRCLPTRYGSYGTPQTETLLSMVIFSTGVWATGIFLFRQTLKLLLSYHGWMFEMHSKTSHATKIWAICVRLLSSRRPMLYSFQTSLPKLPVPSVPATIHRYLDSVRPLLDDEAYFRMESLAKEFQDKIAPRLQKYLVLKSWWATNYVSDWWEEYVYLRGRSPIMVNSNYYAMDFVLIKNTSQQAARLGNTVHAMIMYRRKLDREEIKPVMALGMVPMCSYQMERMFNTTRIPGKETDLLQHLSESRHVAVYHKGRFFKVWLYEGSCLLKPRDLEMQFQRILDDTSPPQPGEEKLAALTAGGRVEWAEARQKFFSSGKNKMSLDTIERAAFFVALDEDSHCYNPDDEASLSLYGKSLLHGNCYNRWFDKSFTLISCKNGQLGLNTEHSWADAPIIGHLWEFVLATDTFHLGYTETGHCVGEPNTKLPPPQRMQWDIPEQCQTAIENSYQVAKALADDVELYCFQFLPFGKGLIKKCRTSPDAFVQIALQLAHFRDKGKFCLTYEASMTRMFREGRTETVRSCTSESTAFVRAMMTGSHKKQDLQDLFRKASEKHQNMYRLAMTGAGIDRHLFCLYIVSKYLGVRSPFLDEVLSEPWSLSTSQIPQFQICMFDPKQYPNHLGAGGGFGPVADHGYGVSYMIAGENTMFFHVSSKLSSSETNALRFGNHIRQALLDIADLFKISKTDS
The data set can be described thus: Carnitine palmitoyltransferase 1 (CPT-1) assay, yeast mitochondria. Type of data set: biochemical. Also on record: % CPT-1 activity: concentration or dose not given beside the values. The conditions noted are these: for % CPT-1 activity: % of DMSO control, mitochondria of P. pastoris expressing rat CPT-1. The source says:
The expression plasmid pRCPT-Iβ/pHW010 (provided by Gebre Woldegiorgis, Beaverton, Oreg. Published in Woldegiorgis G. et al. Biochem. Biophys. Res. Commun. 2004, 325, 660-4.) was linearized in the GAP gene promoter by digestion with AvrII and integrated into the GAPp locus of P. pastoris GS115 by electroporation. Histidine prototrophic transformants were selected on YND plates and grown on YND medium. Mitochondria were isolated by disrupting the yeast cells with glass beads as previously described.
CPT activity was assayed by the forward exchange method using L-[^3H] carnitine as previously described (Nicot, C. et al., Biochem. Biophys. Res. Comm. 2004, 325, 2745-7). In a total volume of 0.5 mL, the standard enzyme assay mixture contained 0.2 mM L-[^3H]carnitine (˜5000 dpm/nmol), 80 μM palmitoyl-CoA, 20 mM HEPES (pH 7.0), 1% fatty acid-free albumin, and 40-75 mM KCl, with or without malonyl-CoA as indicated. Reactions were initiated by addition of isolated intact yeast mitochondria. The reaction was linear up to 4 min, and all incubations were done at 30° C. for 3 min. Reactions were stopped by addition of 6% perchloric acid and were then centrifuged at 2000 rpm for 7 min. The resulting pellet was suspended in water, and the product [^3H]palmitoylcarnitine was extracted with butanol at low pH. After centrifugation at 2000 rpm for 2 min, an aliquot of the butanol phase was transferred to a vial for radioactive counting.

The test system of data set [3] is MCF-7 breast cancer cells. As to the kind of experiment: MTT cytotoxicity assay, MCF-7 breast cancer cells. Type of data set: cell-based, human. The conditions noted are these: 48 h, read-out: IC50, growth inhibition, MCF-7. As to the method: (§1) MCF-7 and MDA-MB-231 breast cancer cells were obtained from the American Type Culture Collection (ATCC) and were routinely grown in Dulbecco's modified Eagle's medium (DMEM, Gibco) containing 10% fetal bovine serum (FBS, Bio-Whittaker), 1% L-glutamine, 1% sodium pyruvate, 50 U/mL penicillin and 50 μg/mL streptomycin. SK-Br3 breast cancer cells were obtained from Eucellbank (Universidad de Barcelona, Spain) and were passaged in McCoy's 5 A medium containing 10% FBS, 1% L-glutamine, 1% sodium pyruvate, 50 U/mL penicillin and 50 μg/mL streptomycin. Non-malignant fibroblasts N-1 were obtained from Eucellbank (Universidad de Barcelona, Spain) and were passaged in DMEM medium containing 10% FBS, 1% L-glutamine, 1% sodium pyruvate, 50 U/mL penicillin and 50 μg/mL streptomycin. The cells remained free of Mycoplasma and were propagated in adherent culture according to established protocols. Cells were maintained at 37° C. in a humidified atmosphere of 95% air and 5% CO2.
(§2) Drug sensitivity was determined using a standard colorimetric MTT (3-4,5-dimethylthiazol-2-yl-2,5-diphenyltetrazolium bromide) assay. Briefly, cells were plated out at a density of 7×10^3 cells/100 μL/well in 96-well microtitre plates and allowed an overnight period for attachment. Then the medium was removed and fresh medium along with various concentrations of the tested compound were added to the cultures for a period of 48 h. Following the treatment, the cells were fed with drug-free medium (100 μL/well) and 10 μL of MTT solution (5 mg/mL; Sigma, St. Louis, Mo.), and the incubation was prolonged for 3 h at 37° C. After carefully removing the supernatants, the MTT-formazan crystals formed by metabolically viable cells were dissolved in dimethyl sulphoxide (100 μL/well) and the absorbance was measured at 570 nm in a multi-well plate reader (Model Anthos Labtec 2010 1.7 reader).
A general note: Tetrazolium assays rely on reduction of a dye to a coloured formazan, in cell work by metabolically active cells.

For data set [4], the system named is cancer cells overexpressing FASN. To be noted: cited from earlier work.
For data set [5], the target named is T2, FASN (Homo sapiens, UniProt P49327).
T2 construct: endogenous in cells; host or cells: SK-Br3 breast cancer cells
T2 sequence (P49327 whole entry): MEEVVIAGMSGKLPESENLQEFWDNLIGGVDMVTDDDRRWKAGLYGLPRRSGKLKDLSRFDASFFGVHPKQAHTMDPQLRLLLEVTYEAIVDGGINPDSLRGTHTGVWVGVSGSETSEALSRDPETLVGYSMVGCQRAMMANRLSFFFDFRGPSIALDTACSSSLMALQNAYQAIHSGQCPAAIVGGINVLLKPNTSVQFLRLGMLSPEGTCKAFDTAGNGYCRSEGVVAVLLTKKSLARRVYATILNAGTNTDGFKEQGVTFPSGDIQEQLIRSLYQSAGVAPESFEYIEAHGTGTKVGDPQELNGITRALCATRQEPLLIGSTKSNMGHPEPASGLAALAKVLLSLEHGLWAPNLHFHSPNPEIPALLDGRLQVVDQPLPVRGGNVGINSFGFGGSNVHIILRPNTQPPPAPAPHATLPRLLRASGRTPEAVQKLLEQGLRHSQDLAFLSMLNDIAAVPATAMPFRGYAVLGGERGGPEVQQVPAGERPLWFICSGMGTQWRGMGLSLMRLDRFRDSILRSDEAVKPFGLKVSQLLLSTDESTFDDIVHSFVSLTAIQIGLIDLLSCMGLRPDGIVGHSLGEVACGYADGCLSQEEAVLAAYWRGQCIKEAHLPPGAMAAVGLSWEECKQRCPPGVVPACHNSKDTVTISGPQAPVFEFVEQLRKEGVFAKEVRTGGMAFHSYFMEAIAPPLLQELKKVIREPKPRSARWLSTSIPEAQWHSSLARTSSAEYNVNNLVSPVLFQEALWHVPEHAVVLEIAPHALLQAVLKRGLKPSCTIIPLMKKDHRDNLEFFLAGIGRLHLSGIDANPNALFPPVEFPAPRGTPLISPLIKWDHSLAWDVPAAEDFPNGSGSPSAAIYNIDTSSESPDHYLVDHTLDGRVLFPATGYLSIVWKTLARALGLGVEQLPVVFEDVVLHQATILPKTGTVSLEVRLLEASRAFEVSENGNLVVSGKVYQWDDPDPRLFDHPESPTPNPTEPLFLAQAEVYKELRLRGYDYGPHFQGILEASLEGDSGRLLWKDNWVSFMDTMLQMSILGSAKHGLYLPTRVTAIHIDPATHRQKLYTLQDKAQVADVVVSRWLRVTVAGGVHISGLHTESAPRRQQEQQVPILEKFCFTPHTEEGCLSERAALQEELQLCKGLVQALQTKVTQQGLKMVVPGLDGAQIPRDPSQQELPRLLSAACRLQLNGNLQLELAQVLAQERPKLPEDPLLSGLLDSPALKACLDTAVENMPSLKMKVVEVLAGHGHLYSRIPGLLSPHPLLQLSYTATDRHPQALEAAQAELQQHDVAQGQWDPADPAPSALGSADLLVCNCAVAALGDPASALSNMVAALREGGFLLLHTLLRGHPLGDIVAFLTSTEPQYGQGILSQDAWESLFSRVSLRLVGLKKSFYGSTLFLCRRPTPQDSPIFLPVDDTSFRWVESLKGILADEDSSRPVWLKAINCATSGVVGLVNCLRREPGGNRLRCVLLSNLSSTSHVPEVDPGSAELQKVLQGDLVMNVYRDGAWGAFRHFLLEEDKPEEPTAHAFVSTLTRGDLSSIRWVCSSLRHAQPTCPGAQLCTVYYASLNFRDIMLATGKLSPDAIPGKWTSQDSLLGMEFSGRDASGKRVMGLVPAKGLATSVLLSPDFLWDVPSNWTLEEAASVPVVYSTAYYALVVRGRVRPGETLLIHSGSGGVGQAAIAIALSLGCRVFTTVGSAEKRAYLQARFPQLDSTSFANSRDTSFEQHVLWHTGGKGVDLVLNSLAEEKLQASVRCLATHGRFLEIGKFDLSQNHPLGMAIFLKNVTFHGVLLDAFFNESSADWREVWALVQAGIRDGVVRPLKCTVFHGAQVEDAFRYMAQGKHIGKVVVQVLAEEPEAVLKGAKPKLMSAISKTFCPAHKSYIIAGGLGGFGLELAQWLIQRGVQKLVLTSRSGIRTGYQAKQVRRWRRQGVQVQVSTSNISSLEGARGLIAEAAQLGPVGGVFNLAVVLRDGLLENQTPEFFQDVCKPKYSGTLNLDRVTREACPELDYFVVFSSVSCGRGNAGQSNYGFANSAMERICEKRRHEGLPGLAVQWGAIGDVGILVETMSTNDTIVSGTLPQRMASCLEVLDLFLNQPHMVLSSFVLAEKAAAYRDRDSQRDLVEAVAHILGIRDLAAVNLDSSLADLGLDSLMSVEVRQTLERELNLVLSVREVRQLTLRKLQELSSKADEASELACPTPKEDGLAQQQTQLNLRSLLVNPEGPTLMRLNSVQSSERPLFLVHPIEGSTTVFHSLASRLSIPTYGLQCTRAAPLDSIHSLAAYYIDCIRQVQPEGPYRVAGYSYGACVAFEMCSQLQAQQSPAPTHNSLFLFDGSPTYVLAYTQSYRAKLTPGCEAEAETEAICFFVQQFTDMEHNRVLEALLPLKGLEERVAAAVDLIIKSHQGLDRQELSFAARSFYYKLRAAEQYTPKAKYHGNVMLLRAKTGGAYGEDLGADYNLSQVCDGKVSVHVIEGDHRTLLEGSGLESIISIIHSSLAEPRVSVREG
The data set can be described thus: Fatty acid synthase activity assay in SK-Br3 cells (NADPH oxidation, particle-free supernatants). More on the design: FASN activity, % of control cells / FASN activity reduced to / reduction of FASN activity: concentration or dose not given beside the values. To be noted: for inhibition of FASN activity (in words): SK-Br3 cells treated 6, 12 and 24 hours; for FASN activity, % of control cells: SK-Br3 cells, 24 h exposure. Type of data set: cell-based. The method, then:
FASN activity of compounds a, b, e, f, h, i, k, m and q was assayed in particle-free supernatants by recording spectrophotometrically at 37° C. (Lambda Bio 20, Perkin Elmer, EUA; using UV Kinlab 2.80.02 software) the decrease of A340nm due to the oxidation of NADPH, as we previously described. After 6, 12, 24 h of exposure to the tested compound, the cells were harvested by treatment with trypsin-EDTA solution, pelleted by centrifugation, washed twice and resuspended in cold PBS. The cells were sonicated during 30 min at 4° C. (PSelecta ultrasons) and centrifuged for 15 min at 4° C. to keep supernatants particle-free. A sample was taken to measure the protein content by a BioRad assay (Bio-Rad Laboratories). One-hundred and twenty micrograms of protein were pre-incubated during 15 min at 37° C. in 0.2 M of potassium phosphate buffer, pH 7.0, for temperature equilibration. The sample was then added to the reaction mixture: 200 mM potassium phosphate buffer, pH 7.0, 1 mM EDTA (Sigma), 1 mM dithiothreitol (Sigma), 30 μM acetyl-CoA (Sigma), 0.24 mM NADPH (Sigma), in 0.3 mL reaction volume were monitored at 340 nm for 3 min to measure the background NADPH oxidation. After the addition of 50 μM of malonyl-CoA (Sigma), the reaction was assayed for additional 10 min to determine FASN-dependent oxidation of NADPH. Rates were corrected for the background rate of NADPH oxidation in the presence of acetyl-CoA. FASN activity was expressed in nmol NADPH oxidized min^−1 mg protein^−1.

The test system of data set [6] is SK-Br3 breast cancer cells. The data set can be described thus: MTT cytotoxicity assay, SK-Br3 breast cancer cells. Type of data set: cell-based, human. The conditions noted are these: MTT, 48 h, read-out: IC50, growth inhibition, SK-Br3. As to the method:
as §1, §2

The test system of data set [7] is MDA-MB-231 breast cancer cells. As to the kind of experiment: MTT cytotoxicity assay, MDA-MB-231 breast cancer cells. To be noted: MDA-MB-231 cells, 48 h, read-out: IC50, growth inhibition, MDA-MB-231. Type of data set: cell-based, human. The method, then: as §1, §2
For data set [8], the system named is Non-malignant fibroblasts N-1. The data set can be described thus: MTT cytotoxicity assay, non-malignant fibroblasts N-1. The conditions noted are these: for IC50: non-malignant fibroblasts, MTT, 48 h, read-out: IC50, growth inhibition, Fibroblasts; for effects in cell death / morphology changes in non-malignant cells: up to doses three-fold their cytotoxic IC50 value in tumoral cells. Type of data set: cell-based. As to the method: as §1, §2

Data set [9] can be described thus: Weight loss in vivo (data not shown).
For data set [10] the following is noted: within 24 h, mice models; cited from earlier work.
Setting [11] is: Homo sapiens, MCF7, MCF-7 cells.

By IC50 is commonly meant the concentration at which inhibition is half-maximal. In general, melting point refers to the temperature of the solid-liquid transition.

Values joined by “and” are separate entries in the source; they are usually repeats but may differ in a detail not shown here. Equal entries are not always repeated. “Also recorded” adds a separate entry of the source. Where two headings read alike, the source gives them in different places.

For the compound `O=C(O[C@@H]1Cc2c(O)cc(O)cc2O[C@@H]1c1cc(O)c(O)c(O)c1)c1cc(O)c(O)c(O)c1` [EGCG, (−)-epigallocatechin-3-gallate, reference compound], the EGCG absorbed in data set [1] is 0.012%. The “% CPT-1 activity” value in data set [2] stood at 81 ± 4%. The IC50 in data set [3] (MCF-7 cells) was 205 ± 7.1 µM; in data set [6] it was 150 µM and 149 µM; in data set [7], 197 ± 15.3 µM; in data set [8], 125 µM. The “inhibitory ability lower than that of C75 and cerulenin” value in [4] is on record as 4 fold. Besides, the “inhibition of FASN activity (in words)” value in data set [5] is “inhibit FASN activity; also recorded: decreased in a time-dependent manner”. The “effects in cell death / morphology changes in non-malignant cells” value in data set [8] is “massive cell death”.
For `O=C(Oc1ccc(OC(=O)c2cc(O)c(O)c(O)c2)c(-c2ccccc2)c1)c1cc(O)c(O)c(O)c1` [o, 2,5-bis[(3,4,5-trihydroxybenzoyl)oxy]-1,1′-biphenyl], the melting point is 114 to 116 °C. For the same compound, in [2], the “stimulation of CPT-1 activity (in words)” value was “did not” and the “% CPT-1 activity” value is 86.80 ± 14%. For the same compound, the IC50 in data set [3] (setting [11]) amounted to 10 ± 2.8 µM. Moreover, the IC50 in [6] (Homo sapiens, SK-BR-3, 48 h) was 17.5 ± 2.6 µM. Further, the IC50 in data set [7] (Homo sapiens) turned out to be 40 ± 2.8 µM.
Take `O=C(Oc1ccc(-c2ccc(OC(=O)c3cc(O)c(O)c(O)c3)cc2)cc1)c1cc(O)c(O)c(O)c1` [q, 4,4′-bis[(3,4,5-trihydroxybenzoyl)oxy]-1,1′-biphenyl]: the “stimulation of CPT-1 activity (in words)” value in data set [2] is recorded as “did not stimulate CPT-1 activity”. Besides, the “% CPT-1 activity” value in [2] turned out to be 84.38 ± 4%. Moreover, the IC50 in data set [3] (setting [11]) turned out to be 2.5 ± 0.1 µM; in data set [6] (Homo sapiens, SK-BR-3, 48 h), 4 ± 1 µM; in data set [6] it was 4.4 ± 1.4 µM; in data set [7] (Homo sapiens), 5.2 ± 3.5 µM; in data set [8] (Fibroblast) it was 13 ± 4 µM. For the same compound, the “inhibition of FASN activity (in words)” value in data set [5] is “inhibit FASN activity; also recorded: decreased in a time-dependent manner”. In addition, in data set [5], the “FASN activity, % of control cells” value came out at 20%. Moreover, in data set [5] (after 24 h of cell exposure), the “reduction of FASN activity” value is 50%. Also, the “weight loss in vivo” value in data set [9] is on record as “without inducing weight loss in vivo”. In data set [8] (at concentrations similar to IC50), the “effect on non-malignant cells / normal fibroblasts” value is reported as “not affected”. Besides, the “effects in cell death / morphology changes in non-malignant cells” value in [8] was “No significant effects”.
Take `C=C1C(=O)O[C@H](CCCCCCCC)[C@H]1C(=O)O` [Compound C75, (2R,3S)-4-methylene-2-octyl-5-oxotetrahydrofuran-3-carboxylic acid, reference compound]: the “loss of body mass” value in data set [10] is given as “up to 12%”. In addition, the “stimulation of CPT-1 activity (in words)” value in data set [2] is “stimulates CPT-1 activity”.
For `O=C(Oc1cc2ccccc2cc1OC(=O)c1cc(O)c(O)c(O)c1)c1cc(O)c(O)c(O)c1` [e, 2,3-bis[(3,4,5-trihydroxybenzoyl)oxy]naphthalene], the melting point was in the range of 182 to 183 °C. In data set [2], the “stimulation of CPT-1 activity (in words)” value is listed as “did not stimulate CPT-1 activity” and the “% CPT-1 activity” value is 87.91 ± 7%. Besides, the IC50 in data set [3] (setting [11]) stood at 89 ± 28.7 µM. For the same compound, in [5], the “inhibition of FASN activity (in words)” value was “inhibit FASN activity; also recorded: decreased in a time-dependent manner” and the “FASN activity, % of control cells” value amounted to 69%. In addition, the IC50 in [6] (Homo sapiens, SK-BR-3, 48 h) amounted to 76.5 ± 9.2 µM. For the same compound, the “weight loss in vivo” value in data set [9] was “without inducing weight loss in vivo”. Further, the IC50 in [7] (Homo sapiens) came out at 136 ± 26.9 µM.
